Results: ChEMBL document CHEMBL5465560, “Selectivity Literature for EUbOPEN Chemogenomic Library” (2024)
Blank lines part the entries; values can stand above or below the molecule they belong to.

Legend:
[1] = biological target: Calcium/calmodulin-dependent protein kinase type II subunit alpha (Homo sapiens, UniProt Q9UQM7); assay: Selectivity interaction (Kinase panel (radiometric inhibition assay)) EUB0000651a CAMK2A
[2] = biological target: Leukocyte tyrosine kinase receptor (Homo sapiens, UniProt P29376); assay: Selectivity interaction (Kinase panel (radiometric inhibition assay)) EUB0000651a LTK
Sequence of Leukocyte tyrosine kinase receptor (P29376 whole entry): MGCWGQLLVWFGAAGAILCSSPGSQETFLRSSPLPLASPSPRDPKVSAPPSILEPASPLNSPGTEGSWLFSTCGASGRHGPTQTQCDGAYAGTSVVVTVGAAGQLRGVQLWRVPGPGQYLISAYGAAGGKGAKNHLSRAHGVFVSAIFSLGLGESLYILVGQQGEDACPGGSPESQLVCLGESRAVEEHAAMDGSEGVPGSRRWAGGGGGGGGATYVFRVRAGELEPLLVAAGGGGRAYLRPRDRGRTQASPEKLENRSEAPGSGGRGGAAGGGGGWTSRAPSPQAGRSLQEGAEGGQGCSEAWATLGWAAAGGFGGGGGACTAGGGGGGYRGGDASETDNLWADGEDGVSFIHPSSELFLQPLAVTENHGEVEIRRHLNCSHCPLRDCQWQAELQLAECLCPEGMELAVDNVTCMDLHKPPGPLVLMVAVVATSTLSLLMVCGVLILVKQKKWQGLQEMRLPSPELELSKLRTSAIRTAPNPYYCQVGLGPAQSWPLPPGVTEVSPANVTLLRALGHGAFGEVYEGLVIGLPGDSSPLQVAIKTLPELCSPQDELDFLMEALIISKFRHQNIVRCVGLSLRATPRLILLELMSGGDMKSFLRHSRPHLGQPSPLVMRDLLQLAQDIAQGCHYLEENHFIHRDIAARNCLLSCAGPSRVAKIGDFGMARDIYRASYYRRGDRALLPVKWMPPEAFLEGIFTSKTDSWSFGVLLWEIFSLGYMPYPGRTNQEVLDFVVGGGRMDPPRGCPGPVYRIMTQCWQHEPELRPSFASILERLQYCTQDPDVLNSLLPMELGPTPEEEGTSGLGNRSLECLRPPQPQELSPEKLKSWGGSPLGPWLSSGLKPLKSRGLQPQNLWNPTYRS

[3] = biological target: T1, cAMP-dependent protein kinase catalytic subunit alpha (Homo sapiens, UniProt P17612); assay: Selectivity interaction (Kinase panel (radiometric inhibition assay)) EUB0000651a PRKACA
[4] = biological target: Protein kinase C alpha type (Homo sapiens, UniProt P17252); assay: Selectivity interaction (Kinase panel (radiometric inhibition assay)) EUB0000651a PRKCA
[5] = biological target: T2, Tyrosine-protein kinase SYK (Homo sapiens, UniProt P43405); assay: Selectivity interaction (Kinase panel (radiometric inhibition assay)) EUB0000651a SYK
[6] = biological target: Tyrosine-protein kinase ABL1 (Homo sapiens, UniProt P00519); assay: Selectivity interaction (TR-FRET binding assay) EUB0000644a ABL1
[7] = biological target: ALK tyrosine kinase receptor (Homo sapiens, UniProt Q9UM73); assay: Selectivity interaction (TR-FRET binding assay) EUB0000644a ALK
[8] = biological target: Aurora kinase B (Homo sapiens, UniProt Q96GD4); assay: Selectivity interaction (TR-FRET binding assay) EUB0000644a AURKB
[9] = biological target: Tyrosine-protein kinase BTK (Homo sapiens, UniProt Q06187); assay: Selectivity interaction (TR-FRET binding assay) EUB0000644a BTK
[10] = biological target: Cyclin-dependent kinase 11A (Homo sapiens, UniProt Q9UQ88); assay: Selectivity interaction (TR-FRET binding assay) EUB0000644a CDK11A
Sequence of Cyclin-dependent kinase 11A (Q9UQ88 whole entry): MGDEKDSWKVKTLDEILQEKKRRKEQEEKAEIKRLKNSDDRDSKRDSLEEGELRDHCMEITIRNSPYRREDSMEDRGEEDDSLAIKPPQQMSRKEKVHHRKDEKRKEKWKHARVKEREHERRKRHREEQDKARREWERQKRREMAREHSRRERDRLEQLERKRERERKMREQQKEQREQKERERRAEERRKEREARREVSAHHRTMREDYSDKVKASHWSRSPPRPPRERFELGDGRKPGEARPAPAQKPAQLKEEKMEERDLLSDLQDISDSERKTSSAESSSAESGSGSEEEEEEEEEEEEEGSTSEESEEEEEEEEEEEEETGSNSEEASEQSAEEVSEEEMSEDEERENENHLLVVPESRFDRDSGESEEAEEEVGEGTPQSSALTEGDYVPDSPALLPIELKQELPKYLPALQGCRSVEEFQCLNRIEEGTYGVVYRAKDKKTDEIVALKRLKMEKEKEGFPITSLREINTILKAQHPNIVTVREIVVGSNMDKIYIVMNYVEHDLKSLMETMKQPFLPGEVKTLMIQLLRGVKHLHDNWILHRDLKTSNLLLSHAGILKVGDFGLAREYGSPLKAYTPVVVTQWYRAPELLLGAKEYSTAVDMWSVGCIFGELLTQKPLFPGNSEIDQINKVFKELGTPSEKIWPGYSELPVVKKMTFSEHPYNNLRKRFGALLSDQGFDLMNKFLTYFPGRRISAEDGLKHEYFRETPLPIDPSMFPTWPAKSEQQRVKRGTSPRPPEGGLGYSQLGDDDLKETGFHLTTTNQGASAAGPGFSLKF

[11] = biological target: Cyclin-dependent kinase 2 (Homo sapiens, UniProt P24941); assay: Selectivity interaction (TR-FRET binding assay) EUB0000644a CDK2
[12] = biological target: CDK8/Cyclin C (Homo sapiens, UniProt P49336); assay: Selectivity interaction (TR-FRET binding assay) EUB0000644a CDK8; format: protein-complex assay
[13] = biological target: CDK7/Cyclin H/MNAT1 (Homo sapiens, UniProt P50613); assay: Selectivity interaction (TR-FRET binding assay) EUB0000644a […]; format: protein-complex assay
Sequence of CDK7/Cyclin H/MNAT1 (P51946 whole entry): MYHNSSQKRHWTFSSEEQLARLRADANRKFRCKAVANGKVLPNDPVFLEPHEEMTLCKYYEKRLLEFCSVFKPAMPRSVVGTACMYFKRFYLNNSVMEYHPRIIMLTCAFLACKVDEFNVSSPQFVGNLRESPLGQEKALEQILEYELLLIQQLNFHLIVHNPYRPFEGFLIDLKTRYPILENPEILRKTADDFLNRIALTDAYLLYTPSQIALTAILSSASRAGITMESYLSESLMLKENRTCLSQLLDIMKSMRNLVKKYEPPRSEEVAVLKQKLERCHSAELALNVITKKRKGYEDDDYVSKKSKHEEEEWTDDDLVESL
Sequence of CDK7/Cyclin H/MNAT1 (P50613 whole entry): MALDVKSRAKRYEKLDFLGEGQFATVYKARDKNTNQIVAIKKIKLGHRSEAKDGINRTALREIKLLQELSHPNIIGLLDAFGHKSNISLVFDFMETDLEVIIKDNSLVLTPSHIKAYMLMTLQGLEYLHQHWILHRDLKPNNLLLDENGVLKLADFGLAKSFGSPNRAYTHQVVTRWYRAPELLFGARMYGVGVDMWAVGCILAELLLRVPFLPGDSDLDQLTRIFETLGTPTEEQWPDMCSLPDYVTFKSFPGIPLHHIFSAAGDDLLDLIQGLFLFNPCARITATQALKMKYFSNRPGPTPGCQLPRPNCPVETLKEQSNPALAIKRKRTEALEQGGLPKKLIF
Sequence of CDK7/Cyclin H/MNAT1 (P51948 whole entry, further chain): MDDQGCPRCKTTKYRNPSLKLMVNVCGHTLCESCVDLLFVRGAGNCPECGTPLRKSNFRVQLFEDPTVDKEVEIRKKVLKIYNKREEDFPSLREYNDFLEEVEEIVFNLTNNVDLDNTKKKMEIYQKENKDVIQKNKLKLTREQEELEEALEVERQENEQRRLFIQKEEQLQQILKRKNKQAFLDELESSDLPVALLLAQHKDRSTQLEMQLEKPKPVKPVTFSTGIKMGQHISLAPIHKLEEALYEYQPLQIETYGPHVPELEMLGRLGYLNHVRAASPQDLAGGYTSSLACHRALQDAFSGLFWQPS

[14] = biological target: Epidermal growth factor receptor (Homo sapiens, UniProt P00533); assay: Selectivity interaction (TR-FRET binding assay) EUB0000644a EGFR
Sequence of Epidermal growth factor receptor (P00533 whole entry): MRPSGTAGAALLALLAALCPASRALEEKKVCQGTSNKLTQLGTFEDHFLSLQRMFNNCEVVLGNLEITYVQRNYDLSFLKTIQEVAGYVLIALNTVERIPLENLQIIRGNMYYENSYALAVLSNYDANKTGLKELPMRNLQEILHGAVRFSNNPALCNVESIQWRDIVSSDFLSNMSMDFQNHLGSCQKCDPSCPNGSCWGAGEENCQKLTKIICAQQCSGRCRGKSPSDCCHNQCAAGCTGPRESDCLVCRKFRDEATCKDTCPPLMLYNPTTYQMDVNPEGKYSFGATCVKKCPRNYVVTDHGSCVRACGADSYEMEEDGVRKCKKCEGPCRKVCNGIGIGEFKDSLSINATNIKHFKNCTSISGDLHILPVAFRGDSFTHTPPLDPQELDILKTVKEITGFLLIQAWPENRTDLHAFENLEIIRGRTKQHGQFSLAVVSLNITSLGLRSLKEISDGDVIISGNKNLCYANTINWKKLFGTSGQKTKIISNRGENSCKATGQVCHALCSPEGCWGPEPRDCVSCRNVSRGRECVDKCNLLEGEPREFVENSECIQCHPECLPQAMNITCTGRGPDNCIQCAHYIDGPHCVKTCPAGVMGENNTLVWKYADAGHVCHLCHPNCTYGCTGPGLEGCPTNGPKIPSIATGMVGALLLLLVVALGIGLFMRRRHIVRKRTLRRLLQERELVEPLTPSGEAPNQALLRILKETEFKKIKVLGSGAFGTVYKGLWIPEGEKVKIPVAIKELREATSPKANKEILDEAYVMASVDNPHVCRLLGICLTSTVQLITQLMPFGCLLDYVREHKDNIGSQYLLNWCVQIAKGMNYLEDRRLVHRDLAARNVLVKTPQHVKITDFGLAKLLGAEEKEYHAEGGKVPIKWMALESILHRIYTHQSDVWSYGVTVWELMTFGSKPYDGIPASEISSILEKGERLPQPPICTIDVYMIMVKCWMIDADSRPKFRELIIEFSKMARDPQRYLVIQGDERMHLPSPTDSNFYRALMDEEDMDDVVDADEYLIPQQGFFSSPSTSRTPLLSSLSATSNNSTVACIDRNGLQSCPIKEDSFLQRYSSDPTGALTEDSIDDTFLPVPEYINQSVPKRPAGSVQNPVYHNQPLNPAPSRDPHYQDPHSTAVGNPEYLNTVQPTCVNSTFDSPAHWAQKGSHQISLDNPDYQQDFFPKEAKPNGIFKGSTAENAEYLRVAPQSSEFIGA

[15] = biological target: G protein-coupled receptor kinase 5 (Homo sapiens, UniProt P34947); assay: Selectivity interaction (TR-FRET binding assay) EUB0000644a GRK5
Sequence of G protein-coupled receptor kinase 5 (P34947 whole entry): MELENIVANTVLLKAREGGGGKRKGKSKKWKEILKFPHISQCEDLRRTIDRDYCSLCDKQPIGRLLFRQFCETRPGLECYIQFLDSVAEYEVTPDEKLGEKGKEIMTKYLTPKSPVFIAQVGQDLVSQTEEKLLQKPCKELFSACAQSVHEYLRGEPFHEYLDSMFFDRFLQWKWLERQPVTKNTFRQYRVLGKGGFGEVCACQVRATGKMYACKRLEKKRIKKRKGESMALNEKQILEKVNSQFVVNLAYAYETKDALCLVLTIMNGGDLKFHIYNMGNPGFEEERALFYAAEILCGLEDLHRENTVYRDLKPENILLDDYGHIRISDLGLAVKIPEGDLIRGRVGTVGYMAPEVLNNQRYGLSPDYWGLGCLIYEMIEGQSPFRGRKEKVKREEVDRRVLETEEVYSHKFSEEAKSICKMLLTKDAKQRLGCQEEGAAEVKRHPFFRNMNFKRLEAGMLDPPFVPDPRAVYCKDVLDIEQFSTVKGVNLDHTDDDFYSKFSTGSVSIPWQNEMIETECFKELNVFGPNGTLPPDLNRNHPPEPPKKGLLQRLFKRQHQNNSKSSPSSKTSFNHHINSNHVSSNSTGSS

[16] = biological target: Vascular endothelial growth factor receptor 2 (Homo sapiens, UniProt P35968); assay: Selectivity interaction (TR-FRET binding assay) EUB0000644a KDR
[17] = biological target: Tyrosine-protein kinase Lck (Homo sapiens, UniProt P06239); assay: Selectivity interaction (TR-FRET binding assay) EUB0000644a LCK
[18] = biological target: Mitogen-activated protein kinase 14 (Homo sapiens, UniProt Q16539); assay: Selectivity interaction (TR-FRET binding assay) EUB0000644a MAPK14
[19] = biological target: Mitogen-activated protein kinase 8 (Homo sapiens, UniProt P45983); assay: Selectivity interaction (TR-FRET binding assay) EUB0000644a MAPK8
[20] = biological target: Hepatocyte growth factor receptor (Homo sapiens, UniProt P08581); assay: Selectivity interaction (TR-FRET binding assay) EUB0000644a MET
[21] = biological target: 5'-AMP-activated protein kinase catalytic subunit alpha-1 (Homo sapiens, UniProt Q13131); assay: Selectivity interaction (TR-FRET binding assay) EUB0000644a PRKAA1
Sequence of 5'-AMP-activated protein kinase catalytic subunit alpha-1 (Q13131 whole entry): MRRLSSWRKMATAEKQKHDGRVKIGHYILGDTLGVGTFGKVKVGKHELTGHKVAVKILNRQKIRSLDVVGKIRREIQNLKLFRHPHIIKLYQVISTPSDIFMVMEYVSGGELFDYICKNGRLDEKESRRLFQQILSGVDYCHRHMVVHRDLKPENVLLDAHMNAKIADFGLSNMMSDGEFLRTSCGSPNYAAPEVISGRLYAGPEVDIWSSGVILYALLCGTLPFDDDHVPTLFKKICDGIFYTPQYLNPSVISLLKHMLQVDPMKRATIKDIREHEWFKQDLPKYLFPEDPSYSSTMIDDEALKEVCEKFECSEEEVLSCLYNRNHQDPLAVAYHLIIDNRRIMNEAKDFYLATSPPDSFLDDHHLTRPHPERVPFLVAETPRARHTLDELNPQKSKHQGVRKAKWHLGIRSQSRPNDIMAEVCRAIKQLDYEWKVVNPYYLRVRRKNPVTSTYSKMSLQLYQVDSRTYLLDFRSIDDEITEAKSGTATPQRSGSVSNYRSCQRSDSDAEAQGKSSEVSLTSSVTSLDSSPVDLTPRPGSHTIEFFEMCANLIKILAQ

[22] = biological target: T1, cAMP-dependent protein kinase catalytic subunit alpha; assay: Selectivity interaction (TR-FRET binding assay) EUB0000644a PRKACA
[23] = biological target: Ribosomal protein S6 kinase alpha-3 (Homo sapiens, UniProt P51812); assay: Selectivity interaction (TR-FRET binding assay) EUB0000644a RPS6KA3
[24] = biological target: T2, Tyrosine-protein kinase SYK; assay: Selectivity interaction (TR-FRET binding assay) EUB0000644a SYK

- IC50 [1]: 33.5 µM
- IC50 [2]: 2.4 µM
- IC50 [3]: > 50 µM
- IC50 [4]: 24 µM
- IC50 [5]: > 50 µM
Structure (SMILES): COc1cc(C)c(Sc2cnc(NC(=O)c3ccc(CNC(C)C(C)(C)C)cc3)s2)cc1C(=O)N1CCN(C(C)=O)CC1 (centres undefined)

Structure (SMILES): CC[C@@H]1CN(C(=O)NCC(F)(F)F)C[C@@H]1c1cnc2cnc3[nH]ccc3n12 [UPADACITINIB]
- IC50 [6]: > 10 µM
- IC50 [7]: 5.5 µM
- IC50 [8]: 5.5 µM
- IC50 [9]: > 10 µM
- IC50 [10]: > 10 µM
- IC50 [11]: > 10 µM
- IC50 [12]: > 10 µM
- IC50 [13]: > 10 µM
- IC50 [14]: > 10 µM
- IC50 [15]: 7.9 µM
- IC50 [16]: 1.5 µM
- IC50 [17]: 10 µM
- IC50 [18]: > 10 µM
- IC50 [19]: > 10 µM
- IC50 [20]: > 10 µM
- IC50 [21]: 4.5 µM
- IC50 [22]: > 10 µM
- IC50 [23]: 9.6 µM
- IC50 [24]: > 10 µM
